According to ChEMBL document CHEMBL1201862, “PubChem BioAssay data set” (2004):
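Protocol summary: plate cells (96-well), add compound at 5 concentrations, incubate 48 h, interpolate endpoints linearly. At the GI50, growth is halved.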 Active and inactive are the calls of the source. Rule as the data show it: active = GI50 up to about 1.1 µM and inactive = higher.

Assays:
Assay in all cases: growth of human tumour cells (NCI), 48 h
ACHN = test system: ACHN
MCF7 = test system: MCF7
OVCAR-3 = test system: OVCAR-3
U-251 = test system: U-251
SK-MEL-5 = test system: SK-MEL-5
SF-295 = test system: SF-295
M14 = test system: M14
MDA-MB-231 = test system: MDA-MB-231
NCI-H23 = test system: NCI-H23
KM12 = test system: KM12
SW-620 = test system: SW-620
NCI-H460 = test system: NCI-H460
UO-31 = test system: UO-31
OVCAR-4 = test system: OVCAR-4
MDA-N = test system: MDA-N
K562 = test system: K562
MOLT-4 = test system: MOLT-4
TK-10 = test system: TK-10
SK-MEL-2 = test system: SK-MEL-2
COLO 205 = test system: COLO 205
NCI-H522 = test system: NCI-H522
EKVX = test system: EKVX
PC-3 = test system: PC-3
SNB-19 = test system: SNB-19
CAKI-1 = test system: CAKI-1
A498 = test system: A498
DU-145 = test system: DU-145
786-0 = test system: 786-0
IGROV-1 = test system: IGROV-1
NCI/ADR-RES = test system: NCI/ADR-RES
HOP-92 = test system: HOP-92
OVCAR-5 = test system: OVCAR-5
HOP-62 = test system: HOP-62
T47D = test system: T47D
Malme-3M = test system: Malme-3M
MDA-MB-435 = test system: MDA-MB-435
RPMI-8226 = test system: RPMI-8226
SK-MEL-28 = test system: SK-MEL-28
HCT-15 = test system: HCT-15
SF-268 = test system: SF-268
CCRF-CEM = test system: CCRF-CEM
HT-29 = test system: HT-29
RXF 393 = test system: RXF 393
HCC 2998 = test system: HCC 2998
A549 = test system: A549
LOX IMVI = test system: LOX IMVI
SNB-75 = test system: SNB-75
SN12C = test system: SN12C
UACC-257 = test system: UACC-257
HCT-116 = test system: HCT-116
UACC-62 = test system: UACC-62
SF-539 = test system: SF-539
OVCAR-8 = test system: OVCAR-8
BT-549 = test system: BT-549
Hs-578T = test system: Hs-578T
NCI-H226 = test system: NCI-H226
HL-60 = test system: HL-60
SK-OV-3 = test system: SK-OV-3
SR = test system: SR
KM-20L2 = test system: KM-20L2
M19-MEL = test system: M19-MEL
DMS-114 = test system: DMS-114
DLD-1 = test system: DLD-1
DMS-273 = test system: DMS-273
SNB-78 = test system: SNB-78

Measured: GI50

O=C(NCCCCCN1CCC2(CCCCC2)CC1)C(C1CCCCC1)C1CCCCC1
inactive: ACHN 3.67 µM | MCF7 2.13 µM | OVCAR-3 4.17 µM | U-251 4.34 µM | SK-MEL-5 1.61 µM | SF-295 1.88 µM | M14 1.68 µM | MDA-MB-231 5.11 µM | NCI-H23 3.1 µM | KM12 6.11 µM | SW-620 2.6 µM | NCI-H460 2.45 µM | UO-31 3.61 µM | OVCAR-4 3.59 µM | MDA-N 1.84 µM | K562 1.52 µM | MOLT-4 1.9 µM | TK-10 4.71 µM | SK-MEL-2 2.21 µM | COLO 205 1.45 µM | NCI-H522 4.17 µM | EKVX 3.6 µM | PC-3 2.77 µM | SNB-19 5.73 µM | CAKI-1 4.1 µM | A498 4.26 µM | DU-145 4.6 µM | 786-0 5.08 µM | IGROV-1 4.24 µM | NCI/ADR-RES 3.18 µM | HOP-92 3.73 µM | OVCAR-5 6.22 µM | HOP-62 1.85 µM | T47D 2.51 µM | Malme-3M 1.75 µM | MDA-MB-435 1.85 µM | RPMI-8226 2.19 µM | SK-MEL-28 1.83 µM | SF-268 5.35 µM | CCRF-CEM 2.99 µM | HT-29 1.97 µM | RXF 393 4.24 µM | HCC 2998 1.3 µM | A549 5.94 µM | LOX IMVI 2.7 µM | SNB-75 4.12 µM | SN12C 3.55 µM | UACC-257 1.82 µM | HCT-116 4.44 µM | UACC-62 2.48 µM | SF-539 1.91 µM | OVCAR-8 2.72 µM | BT-549 5.87 µM | Hs-578T 3.05 µM | NCI-H226 3.67 µM | HL-60 1.56 µM | SK-OV-3 5.15 µM | SR 1.57 µM
3.08 µM: HCT-15

COc1ccc(/C=c2\sc3n(c2=O)C(N)=C(C#N)C(c2ccc(OC)cc2)C=3c2nc3ccccc3[nH]2)cc1 (stereo unspecified)
27.1 µM: HCT-15
inactive: ACHN 34.4 µM | KM-20L2 42.2 µM | OVCAR-3 19.6 µM | U-251 18 µM | SK-MEL-5 16.9 µM | M19-MEL 28.7 µM | M14 77.1 µM | NCI-H23 5.02 µM | KM12 14.2 µM | SW-620 27.7 µM | NCI-H460 18.6 µM | UO-31 > 100 µM | DMS-114 30.8 µM | OVCAR-4 > 100 µM | K562 > 100 µM | MOLT-4 29.1 µM | TK-10 16.1 µM | SK-MEL-2 28.6 µM | COLO 205 56.4 µM | NCI-H522 45.7 µM | EKVX 22.6 µM | SNB-19 > 100 µM | CAKI-1 21.4 µM | A498 29.6 µM | 786-0 > 100 µM | IGROV-1 44.7 µM | HOP-92 12.2 µM | OVCAR-5 27.4 µM | HOP-62 38.7 µM | Malme-3M 22.6 µM | RPMI-8226 55.6 µM | SK-MEL-28 18.5 µM | SF-268 42.1 µM | CCRF-CEM 39.2 µM | DLD-1 > 10 µM | HCC 2998 16.4 µM | A549 33.7 µM | LOX IMVI 18 µM | SNB-75 29.6 µM | SN12C 78.7 µM | UACC-257 28.9 µM | HCT-116 27.2 µM | UACC-62 79.4 µM | SF-539 > 10 µM | OVCAR-8 > 10 µM | NCI-H226 27 µM | HL-60 41.2 µM | DMS-273 33.4 µM | SR 39.5 µM

CN(C)/C=N/S(=O)(=O)c1nn2c(C=O)c(-c3ccc(-c4ccc([N+](=O)[O-])cc4)o3)nc2s1
inactive: ACHN 1.97 µM | MCF7 2.13 µM | OVCAR-3 2.07 µM | U-251 2.25 µM | SK-MEL-5 4.76 µM | SF-295 7.08 µM | M14 2.12 µM | MDA-MB-231 2.65 µM | NCI-H23 3.1 µM | KM12 5.64 µM | NCI-H460 1.63 µM | UO-31 1.91 µM | OVCAR-4 3.54 µM | MOLT-4 1.19 µM | TK-10 3.39 µM | SK-MEL-2 7.28 µM | COLO 205 1.99 µM | NCI-H522 1.38 µM | EKVX 5.07 µM | PC-3 3.37 µM | SNB-19 13.9 µM | A498 15.3 µM | DU-145 3.64 µM | IGROV-1 1.72 µM | NCI/ADR-RES 8.15 µM | HOP-92 1.84 µM | OVCAR-5 4.04 µM | HOP-62 7.43 µM | T47D 5.52 µM | Malme-3M 1.78 µM | MDA-MB-435 2.68 µM | SK-MEL-28 2.4 µM | SF-268 4.61 µM | RXF 393 1.91 µM | HCC 2998 5.33 µM | A549 3.62 µM | LOX IMVI 2.33 µM | SNB-75 9.18 µM | SN12C 1.71 µM | UACC-257 7.41 µM | HCT-116 1.34 µM | UACC-62 3.68 µM | SF-539 2.15 µM | OVCAR-8 8.04 µM | BT-549 1.72 µM | Hs-578T 3.88 µM | NCI-H226 20.5 µM | SK-OV-3 36.1 µM
active: SW-620 0.933 µM | MDA-N 1.1 µM | K562 1.1 µM | CAKI-1 0.308 µM | 786-0 1.07 µM | RPMI-8226 0.931 µM | CCRF-CEM 0.426 µM | HT-29 0.611 µM | HL-60 0.807 µM | SR 0.883 µM
2.21 µM: HCT-15

COc1cc(C)cc2c1[nH]c1ccccc12 [MURRAYAFOLINE A]
inactive: OVCAR-3 8.91 µM | DMS-114 9.64 µM | OVCAR-4 > 25 µM | K562 > 25 µM | TK-10 > 25 µM | SNB-19 > 25 µM | OVCAR-5 24.5 µM | HOP-62 6.53 µM | RPMI-8226 8.65 µM | RXF 393 9.16 µM | A549 11.5 µM | SNB-78 > 25 µM | OVCAR-8 7.33 µM
